Test results taken from ChEMBL document CHEMBL5523725, “Fragment-Based Anti-inflammatory Agent Design and Target Identification: Discovery of AF-45 as an IRAK4 Inhibitor to Treat Ulcerative Colitis and Acute Lung Injury” (J Med Chem, 2024).
The source made the active and inactive calls. The rule behind the calls is not given here.

Key:
[1] = tested on: Mus musculus; experiment: Antiinflammatory activity in male C57BL/6 mouse model of DSS-induced ulcerative colitis assessed as reduction in IL-6 level in serum at 20 mg/kg, po administered for 11 days with subsequent administration of DSS for 8 days by ELISA; type: functional, organism-based; conditions: time 11.0 day
[2] = tested on: Mus musculus; experiment: Antiinflammatory activity in LPS induced C57BL/6 mouse model of acute lung injury assessed as reduction in inflammatory exudation in lung at 20 mg/kg, ip preadministered for 30 mins followed by LPS administration and measured after 6 hrs by H and E staining based analysis; type: functional, organism-based; conditions: time 6.5 hrs
[3] = tested on: RAW264.7; experiment: Inhibition of NFkappaB/MAPK signaling pathway in mouse RAW264.7 cells assessed as reduction in LPS-induced IkappaBalpha degradation at 50 uM by Western blot analysis; type: cell-based
[4] = Half life in male Sprague-Dawley rat at 10 mg/kg, po measured upto 24 hrs; type: ADME, organism-based; conditions: in vivo
[5] = biological target: Aurora kinase B (Homo sapiens) (UniProt Q96GD4); experiment: Inhibition of human AurB assessed as residual activity at 10 uM by Eurofins kinase profiler method relative to control
[6] = Stability of compound in enzyme free simulated intestinal fluid at 10 mg/ml incubated for 8 hrs and measured every 2 hrs hy HPLC analysis; type: ADME; conditions: simulated gi fluid
[7] = Clearance in male Sprague-Dawley rat at 1 mg/kg, iv administered via tail vein and measured upto 24 hrs; type: ADME, organism-based; conditions: in vivo
[8] = Stability of compound in enzyme-free simulated gastric fluid at 10 mg/ml incubated for 8 hrs and measured every 2 hrs hy HPLC analysis; type: ADME; conditions: simulated gi fluid
[9] = Stability of compound in simulated gastric fluid at 10 mg/ml incubated for 8 hrs and measured every 2 hrs hy HPLC analysis; type: ADME; conditions: simulated gi fluid
[10] = Stability of compound in rat plasma at 10 mg/ml incubated for 8 hrs and measured every 2 hrs hy HPLC analysis; type: ADME, cell-free
[11] = Clearance in male Sprague-Dawley rat at 10 mg/kg, po measured upto 24 hrs; type: ADME, organism-based; conditions: in vivo
[12] = tested on: Mus musculus; experiment: Antiinflammatory activity in male C57BL/6 mouse model of DSS-induced ulcerative colitis assessed as reversal of invisible pulp structure at 10 to 20 mg/kg, po administered for 11 days with subsequent administration of DSS for 8 days by H and E staining based analysis; type: functional, organism-based; conditions: dose 10-20 mg/kg, time 11.0 day
[13] = biological target: Interleukin-1 receptor-associated kinase 1 (Homo sapiens, UniProt P51617); experiment: Inhibition of IRAK1 (unknown origin) at 10 uM relative to control
[14] = Tmax in male Sprague-Dawley rat at 10 mg/kg, po measured upto 24 hrs; type: ADME, organism-based; conditions: in vivo
[15] = Cmax in male Sprague-Dawley rat at 10 mg/kg, po measured upto 24 hrs; type: ADME, organism-based; conditions: in vivo
[16] = biological target: T1, Lymphocyte antigen 96 (Mus musculus) (UniProt Q9JHF9); experiment: Thermal stabilization of MD2 in mouse RAW264.7 cells assessed as reduction in decomposition at 10 uM at 45 to 51 degreeC measured after 4 hrs by CETSA; type: cell-based
T1 sequence (whole entry): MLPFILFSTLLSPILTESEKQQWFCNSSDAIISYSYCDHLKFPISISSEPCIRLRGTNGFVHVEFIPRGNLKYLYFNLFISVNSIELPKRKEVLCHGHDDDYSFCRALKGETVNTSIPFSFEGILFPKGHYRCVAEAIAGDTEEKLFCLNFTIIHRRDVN

[17] = tested on: RAW264.7; experiment: cells; conditions: Mus musculus
Description: Antiinflammatory activity in LPS-induced mouse RAW264.7 cells assessed as inhibition of IL-6 release pretreated for 30 mins followed by LPS stimulation and measured after 24 hrs by ELISA

[18] = Tmax in male Sprague-Dawley rat at 1 mg/kg, iv administered via tail vein and measured upto 24 hrs; type: ADME, organism-based; conditions: in vivo
[19] = Cytotoxicity against mouse RAW264.7 cells assessed as cell viability by MTT assay; type: toxicity, cell-based; design: concentration or dose not given beside the values; conditions: read-out: Activity
[20] = tested on: Mus musculus; experiment: Antiinflammatory activity in LPS induced C57BL/6 mouse model of acute lung injury assessed as inhibition of IL-6 release in serum at 20 to 40 mg/kg, ip preadministered for 30 mins followed by LPS administration and measured after 6 hrs by ELISA; type: functional, organism-based; conditions: dose 20-40 mg/kg, time 6.5 hrs
[21] = tested on: RAW264.7; experiment: Inhibition of NFkappaB signaling pathway in LPS-induced mouse RAW264.7 cells assessed as inhibition of p65 entry into nucleus pretreated for 2 hrs followed by LPS stimulation and measured after 15 mins by immunofluorescence staining based analysis; type: cell-based; conditions: time 135.0 min
[22] = AUC (0 to t) in male Sprague-Dawley rat at 10 mg/kg, po measured upto 24 hrs; type: ADME, organism-based; conditions: in vivo
[23] = tested on: RAW264.7; experiment: Inhibition of NFkappaB/MAPK signaling pathway in mouse RAW264.7 cells assessed as reduction in LPS-induced JNK phosphorylation at 50 uM by Western blot analysis; type: cell-based
[24] = tested on: J774.A1; experiment: cells; conditions: Mus musculus
Description: Antiinflammatory activity in LPS-induced mouse J774.A1 cells assessed as inhibition of TNF-alpha release pretreated for 30 mins followed by LPS stimulation and measured after 24 hrs by ELISA

[25] = biological target: T2, Inhibitor of nuclear factor kappa-B kinase subunit beta (Homo sapiens) (UniProt O14920); experiment: Inhibition of IKKbeta (unknown origin) at 10 uM relative to control
T2 sequence (whole entry): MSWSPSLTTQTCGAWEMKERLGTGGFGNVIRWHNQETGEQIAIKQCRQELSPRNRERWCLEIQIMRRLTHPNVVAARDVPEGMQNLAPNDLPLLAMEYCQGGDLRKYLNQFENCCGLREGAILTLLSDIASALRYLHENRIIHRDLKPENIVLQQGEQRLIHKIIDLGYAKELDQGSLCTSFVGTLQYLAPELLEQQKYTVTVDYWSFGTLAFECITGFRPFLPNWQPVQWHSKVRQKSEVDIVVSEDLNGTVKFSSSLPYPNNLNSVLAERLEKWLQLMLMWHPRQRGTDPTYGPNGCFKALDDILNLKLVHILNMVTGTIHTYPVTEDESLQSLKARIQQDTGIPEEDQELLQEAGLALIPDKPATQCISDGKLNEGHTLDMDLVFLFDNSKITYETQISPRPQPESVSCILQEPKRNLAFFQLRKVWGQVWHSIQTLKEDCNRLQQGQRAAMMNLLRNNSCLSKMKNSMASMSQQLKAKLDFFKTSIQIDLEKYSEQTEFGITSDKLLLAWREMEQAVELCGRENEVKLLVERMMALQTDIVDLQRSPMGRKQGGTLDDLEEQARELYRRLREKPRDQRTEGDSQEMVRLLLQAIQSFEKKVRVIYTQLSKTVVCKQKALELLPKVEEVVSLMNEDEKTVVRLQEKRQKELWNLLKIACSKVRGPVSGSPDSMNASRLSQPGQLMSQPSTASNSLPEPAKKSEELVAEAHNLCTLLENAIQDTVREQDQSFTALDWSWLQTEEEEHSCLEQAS

[26] = tested on: Mus musculus; experiment: Antiinflammatory activity in male C57BL/6 mouse model of DSS-induced ulcerative colitis assessed as increase in body weight at 20 mg/kg, po administered for 11 days with subsequent administration of DSS for 8 days and measured on day 11; type: functional, organism-based; conditions: time 11.0 day
[27] = tested on: Mus musculus; experiment: In vivo binding affinity to IRAK4 in DSS-induced ulcerative colitis C57BL/6 mouse colon assessed as thermal stabilization at 10 to 20 mg/kg, po administered for 11 days with subsequent administration of DSS for 8 days by CETSA; type: functional, organism-based; conditions: dose 10-20 mg/kg, time 11.0 day

Sequence of Aurora kinase B (Homo sapiens) (Q96GD4 whole entry): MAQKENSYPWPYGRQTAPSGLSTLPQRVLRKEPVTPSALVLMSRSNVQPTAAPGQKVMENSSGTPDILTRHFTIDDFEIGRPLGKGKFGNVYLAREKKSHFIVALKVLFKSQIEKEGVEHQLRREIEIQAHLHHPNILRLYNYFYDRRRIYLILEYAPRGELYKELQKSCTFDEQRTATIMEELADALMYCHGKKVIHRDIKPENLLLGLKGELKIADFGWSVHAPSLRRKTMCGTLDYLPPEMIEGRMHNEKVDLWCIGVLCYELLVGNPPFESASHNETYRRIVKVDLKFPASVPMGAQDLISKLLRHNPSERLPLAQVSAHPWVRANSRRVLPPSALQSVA
Sequence of Interleukin-1 receptor-associated kinase 1 (P51617 whole entry, looked up): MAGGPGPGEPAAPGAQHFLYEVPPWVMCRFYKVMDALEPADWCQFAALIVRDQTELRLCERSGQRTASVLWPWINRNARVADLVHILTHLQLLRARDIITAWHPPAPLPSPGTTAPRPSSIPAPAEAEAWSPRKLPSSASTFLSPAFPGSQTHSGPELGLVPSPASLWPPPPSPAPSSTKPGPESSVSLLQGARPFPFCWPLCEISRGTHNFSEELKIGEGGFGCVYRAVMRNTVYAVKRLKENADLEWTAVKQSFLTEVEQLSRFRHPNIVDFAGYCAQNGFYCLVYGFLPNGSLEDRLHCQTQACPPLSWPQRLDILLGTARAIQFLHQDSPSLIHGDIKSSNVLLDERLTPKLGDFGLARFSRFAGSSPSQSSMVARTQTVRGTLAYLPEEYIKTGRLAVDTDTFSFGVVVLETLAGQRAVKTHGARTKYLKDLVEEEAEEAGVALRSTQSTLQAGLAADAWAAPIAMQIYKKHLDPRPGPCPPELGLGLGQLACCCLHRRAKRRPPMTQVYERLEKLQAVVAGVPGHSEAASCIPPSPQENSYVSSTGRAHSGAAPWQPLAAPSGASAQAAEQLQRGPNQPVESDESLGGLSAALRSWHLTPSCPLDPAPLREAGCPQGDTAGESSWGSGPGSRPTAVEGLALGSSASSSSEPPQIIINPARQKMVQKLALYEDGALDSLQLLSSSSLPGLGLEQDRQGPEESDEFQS

half-life [4]: 5.6 h
Activity [5]: 70%
Stability [6]: Stable
clearance [7]: 3.83 mL/min/kg
Stability [8]: Stable
Stability [9]: Stable
Stability [10]: Stable
CL [11]: 1.48 mL/min/kg
inhibition [13]: 87%
Tmax [14]: 3 h
Cmax [15]: 1250 ng/mL
Activity [16]: inactive
IC50 [17]: 1270 nM
Tmax [18]: 4.8 min
AUCt [22]: 10653.6 ng·h/mL
IC50 [24]: 2750 nM
inhibition [25]: -1.64%
Structure (SMILES): COc1cc2c(O[C@H]3CC[C@@H](N)CC3)ncnc2cc1OCc1ccccc1
Activity [1]: Active
Activity [2]: Active
inhibition [3]: Active
Activity [12]: Active
viability [19]: 98.2%
Activity [20]: Active
inhibition [21]: Active
inhibition [23]: Active
Activity [26]: Active
Activity [27]: Active
